Values of other authors as cited in publication PMC7395068, “The evolution of strategies to minimise the risk of human drug-induced liver injury (DILI) in drug discovery and development” (Archives of Toxicology, 2020).
Where two headings read alike, the source gives them in different places.

Conditions: cited from earlier work
[1] = binary in vivo DILI call given beside the severity category, ref Chen 2016
[2] = human DILI concern category (LTKB DILIrank), ref Chen 2016

Structure (SMILES)	DILI +VE (5-8), DILI -VE (-4) [1]	DILI severity category [2]	DILI +VE (5-8), DILI -VE (-4) (in vivo)	DILI severity category (in vivo)
Cc1nccn1CC1CCc2c(c3ccccc3n2C)C1=O (stereo not drawn) [ondansetron]	+VE	vLess-DILI-Concern	–	–
Cc1onc(-c2ccccc2)c1C(=O)N[C@@H]1C(=O)N2[C@@H]1SC(C)(C)[C@@H]2C(=O)O [oxacillin]	+VE	vLess-DILI-Concern	–	–
O=C(O)C(=O)O.[NH-][C@@H]1CCCC[C@H]1[NH-].[Pt+2] [oxaliplatin]	+VE	vMost-DILI-Concern	–	–
O=C1Nc2ccc(Cl)cc2C(c2ccccc2)=NC1O (stereo not drawn) [oxazepam]	–	–	-VE	Ambiguous DILI-concern
COc1ccc2c3c1O[C@H]1C(=O)CC[C@@]4(O)[C@@H](C2)N(C)CC[C@]314 [oxycodone]	–	–	-VE	vNo-DILI-Concern
O=C1Nc2ccccc2C1(c1ccc(O)cc1)c1ccc(O)cc1 [oxyphenisatin]	–	–	+VE	vMost-DILI-Concern
CC[C@H](C)[C@@H]1NC(=O)[C@H](Cc2ccc(O)cc2)NC(=O)[C@@H](N)CSSC[C@@H](C(=O)N2CCC[C@H]2C(=O)N[C@@H](CC(C)C)C(=O)NCC(N)=O)NC(=O)[C@H](CC(N)=O)NC(=O)[C@H](CCC(N)=O)NC1=O [oxytocin]	–	–	-VE	vNo-DILI-Concern
CONC(=N)c1ccc(-c2ccc(-c3ccc(C(=N)NOC)cc3)o2)cc1 [pafuramidine]	+VE	vMost-DILI-Concern	–	–
O=C1c2cccc3c2[C@H](CCC3)CN1[C@@H]1CN2CCC1CC2 [palonosetron]	-VE	Ambiguous DILI-concern	–	–
CC(=O)O[C@H]1C[C@@H]2CC[C@@H]3[C@H](CC[C@@]4(C)[C@H]3C[C@H]([N+]3(C)CCCCC3)[C@@H]4OC(C)=O)[C@@]2(C)C[C@@H]1[N+]1(C)CCCCC1 [pancuronium]	–	–	-VE	vNo-DILI-Concern
COc1ccnc(C[S+]([O-])c2nc3ccc(OC(F)F)cc3[nH]2)c1OC (stereo not drawn) [pantoprazole]	+VE	vLess-DILI-Concern	–	–
COc1ccc(Cc2nccc3cc(OC)c(OC)cc23)cc1OC [papaverine]	–	–	+VE	vMost-DILI-Concern
C[C@H](/C=C/[C@H](C)C(C)(C)O)[C@H]1CC[C@H]2/C(=C/C=C3C[C@@H](O)C[C@H](O)C3)CCC[C@]12C [paricalcitol]	-VE	Ambiguous DILI-concern	–	–
Nc1nc2[nH]cc(CCc3ccc(C(=O)N[C@@H](CCC(=O)O)C(=O)O)cc3)c2c(=O)[nH]1 [pemetrexed]	-VE	Ambiguous DILI-concern	–	–
CSCC[C@H](NC(=O)[C@H](Cc1c[nH]c2ccccc12)NC(=O)CCNC(=O)OC(C)(C)C)C(=O)N[C@@H](CC(=O)O)C(=O)N[C@@H](Cc1ccccc1)C(N)=O [pentagastrin]	–	–	-VE	vNo-DILI-Concern
N=C(N)c1ccc(OCCCCCOc2ccc(C(=N)N)cc2)cc1 [pentamidine]	+VE	vLess-DILI-Concern	–	–
CC(C)=CCN1CCC2(C)c3cc(O)ccc3CC1C2C (stereo not drawn) [pentazocine]	-VE	vNo-DILI-Concern	–	–
O=C(O)CN(CCN(CC(=O)O)CC(=O)O)CCN(CC(=O)O)CC(=O)O [pentetic acid]	-VE	vNo-DILI-Concern	–	–
CCCC(C)C1(CC)C(=O)NC(=O)NC1=O (stereo not drawn) [pentobarbital]	-VE	Ambiguous DILI-concern	–	–
OC[C@H]1O[C@@H](n2cnc3c2NC=NC[C@H]3O)C[C@@H]1O [pentostatin]	+VE	vMost-DILI-Concern	–	–

Structure (SMILES)	DILI +VE (5-8), DILI -VE (-4) [1]	DILI severity category [2]	DILI +VE (5-8), DILI -VE (-4) (in vivo)	DILI severity category (in vivo)
CC(=O)CCCCn1c(=O)c2c(ncn2C)n(C)c1=O [pentoxifylline]	-VE	Ambiguous DILI-concern	–	–
FC(F)(F)C(F)(F)C(F)(F)F [perflutren]	-VE	vNo-DILI-Concern	–	–
CCC[C@H](N[C@@H](C)C(=O)N1[C@H](C(=O)O)C[C@@H]2CCCC[C@@H]21)C(=O)OCC [perindopril]	-VE	Ambiguous DILI-concern	–	–
CC1=C(C/C=C(\C)CCC[C@H](C)CCC[C@H](C)CCCC(C)C)C(=O)c2ccccc2C1=O [phytonadione]	-VE	vNo-DILI-Concern	–	–
O=C(O)C[C@H](O)C[C@H](O)/C=C/c1c(C2CC2)nc2ccccc2c1-c1ccc(F)cc1 [pitavastatin]	-VE	Ambiguous DILI-concern	–	–
c1cc(CN2CCCNCCNCCCNCC2)ccc1CN1CCCNCCNCCCNCC1 [plerixafor]	-VE	vNo-DILI-Concern	–	–
CN1C(CSCC(F)(F)F)Nc2cc(Cl)c(S(N)(=O)=O)cc2S1(=O)=O (stereo not drawn) [polythiazide]	-VE	Ambiguous DILI-concern	–	–
CC[C@@H]([C@H](C)O)n1ncn(-c2ccc(N3CCN(c4ccc(OC[C@@H]5CO[C@@](Cn6cncn6)(c6ccc(F)cc6F)C5)cc4)CC3)cc2)c1=O [posaconazole]	-VE	Ambiguous DILI-concern	–	–
C#CCC(Cc1cnc2nc(N)nc(N)c2n1)c1ccc(C(=O)N[C@@H](CCC(=O)O)C(=O)O)cc1 (stereo partly drawn) [pralatrexate]	-VE	Ambiguous DILI-concern	–	–
C[n+]1ccccc1/C=N/O [pralidoxime]	-VE	Ambiguous DILI-concern	–	–
CCO[C@@H]1OC(=O)C[C@@H]1NC(=O)[C@@H]1CCCN2C(=O)CC[C@H](NC(=O)c3nccc4ccccc34)C(=O)N12 [pralnacasan]	+VE	vMost-DILI-Concern	–	–
CCCN[C@H]1CCc2nc(N)sc2C1 [pramipexole]	-VE	Ambiguous DILI-concern	–	–
COc1cc2nc(N3CCN(C(=O)c4ccco4)CC3)nc(N)c2cc1OC [prazosin]	–	–	-VE	Ambiguous DILI-concern
CC(C)c1cccc(C(C)C)c1O [propofol]	–	–	+VE	vLess-DILI-Concern
NC(=O)[C@@H]1CCCN1C(=O)[C@H](Cc1cnc[nH]1)NC(=O)[C@@H]1CCC(=O)N1 [protirelin]	–	–	-VE	vNo-DILI-Concern
Fc1ccccc1C1=NCC(=S)N(CC(F)(F)F)c2ccc(Cl)cc21 [quazepam]	-VE	vNo-DILI-Concern	–	–
OCCOCCN1CCN(C2=Nc3ccccc3Sc3ccccc32)CC1 [quetiapine]	+VE	vLess-DILI-Concern	–	–
COCCCOc1ccnc(C[S+]([O-])c2nc3ccccc3[nH]2)c1C (stereo not drawn) [rabeprazole]	+VE	vLess-DILI-Concern	–	–
CCC(=O)NCC[C@@H]1CCc2ccc3c(c21)CCO3 [ramelteon]	-VE	vNo-DILI-Concern	–	–
